Reference: article PMC6158189, “A pharmacological probe identifies cystathionine β-synthase as a new negative regulator for ferroptosis” (Cell Death & Disease, 2018)
Entries after “also recorded” stand apart in the source; their conditions may differ.

Columns and labels:
[1] = viable cells (Annexin V-PI double negative) with CH004 and ferroptosis inhibitors, flow cytometry; settings: human
HepG2 cells [2] = experiment: intracellular ROS (DCFH-DA, flow cytometry); type: cell-based, human; settings: HepG2, 12 h
Protocol: Fig. 5 In situ reduction of CBS activity and H2S in mitochondria by CH004 is coupled with an increase of intracellular ROS. a, b CH004 dose-dependently elevates ROS levels in both HepG2 (a) and HEK293T cells (b). The cells were treated with CH004 for 12 h or with 1 mM H2O2 for 30 min before the staining with DCFH-DA (Molecular Probes) and the analyzsis by flow cytometry (“Materials and Methods” section). Means ± SDS (n = 3). […] HepG2 cells were incubated with indicated inhibitors for 8 h before staining with the mitochondria tracker Mito-tracker® Green (Invitrogen) and the AzMC probe. Cyan represents the colocalization of H2S (blue) and the mitochondria tracker (green). Bars: 50 μm. d hCBS co-localizes with the mitochondria in HepG2 and HEK293T cells. HepG2 and HEK293T cells were stained with an anti-CBS antibody (3E1, 1:200; Abnova) for hCBS (red), Mito-tracker® Green for the mitochondria (green) and DAPI for the nucleus (blue). […]
To investigate the intracellular ROS levels, HEK293T or HepG2 cells were seeded in 6-well plates for one day, then incubated with the indicated inhibitors and 1 mM H2O2 for 12 h and 30 min, respectively. After trypsinization and one wash in PBS, the collected cells were resuspended in PBS and incubated with 100 μM probe DCFH-DA for 30 min at 37 °C before being analyzed using an LSR Fortessa flow cytometer.

[3] = tested on: rat hemorrhagic shock model; experiment: hemorrhagic shock rat model; type: in vivo; settings: 3 mg/kg intraperitoneal
Protocol: Fig. 3 The effect of CH004 on the activity of endogenous hCBS in cells. a CH004 dose-dependently elevates the levels of Hcys in HepG2 and HEK293T cells. HepG2 cells or HEK293T cells were incubated with indicated CH004 or DMSO (control) for 12 h. The amount of total Hcys in cells was measured by ELISA using Axis® Homocysteine EIA kit (IBL, AX51301) (“Materials and Methods” section). […] HepG2 cells were treated with indicated DMSO, CH004 or HA for 8 h before the staining with AzMC probe. The amount of the H2S (blue) was quantified and is shown in (c). Bars, 50 μm. Control (CTR), DMSO group (100%). A representative fluorescence image from three independent experiments is shown. […] The total Hcys of the blood samples collected from the anesthetized rats at the 75 min time point (Materials and Methods) were quantified by ELISA (see above). […]
Figure S10. […] The hemorrhagic shock model was constructed by blood withdrawing (BW) from the carotid artery of anesthetized male Sprague-Dawley rats (280-320 g), and the mean arterial blood pressure (MAP) was monitored by an MP30B-CE pressure transducer (BIOPAC, Santa Barbara, CA, USA). […] Then, 15 min later, CH004 (3 mg/kg), PAG (50 mg/kg) or vehicle (2% DMSO in saline) was intraperitoneally administered to the rats, and the MAP was monitored continuously for another 45 min. MAP was continually recorded during the experiments. […]

HepG2 cells [4] = experiment: cellular cystathionine by LC/ESI-MS/MS; type: cell-based, human; settings: 8 h, 100 μM Hcys and 100 μM Ser
Protocol: The effect of CH004 on the level of CTH in HepG2 cells was determined by a liquid chromatography-tandem mass spectrometry (LC/ESI-MS/MS). We followed a condition, which was previously established with LC/ESI-MS/MS[56], for quantification of CTH. […] We selected the 223.1 → 88.1 transition for the quantitative method. Briefly, after the incubation with the compounds for 8 h in the presence of 100 μM Hcys and 100 μM Ser, the HepG2 cells were lysed with liquid nitrogen. 10 μl supernatant was injected to the Ultra Performance Liquid Chromatographic system on a Zorbax XDB C18 reverse phase column (4.6 × 150 mm, temperature-controlled at 10 °C), and eluted isogradiently with a solution mixed from acetonitrile (in the presence of 0.1% formic acid) and water (0.1% formic acid) (2:98, v/v) at a flow rate of 0.4 ml/min in a diode array detector (Agilent G4212A). The Agilent 6470 UHPLC-QqQ/MS system composes of a chomatographic system (Agilent 1260 Infinity) and a Triple Quad mass spectrometer fitted with an ESI source. Data was acquired in the MRM mode using Agilent MassHunter Workstation Data Acquisition Software (revision B.04).
Figure S14. […] All images are representative of three independent experiments. […] Means ± SDs (n=2).

Cn1nc(Cc2ccccc2)nc2c(=O)n(C)c(=O)nc1-2 [CH004, 3-benzyl-1,6-dimethylpyrimido[5,4-e][1,2,4]triazine-5,7(1H,6H)-dione]
viability at 24 h, 15 μM [1]: 30.8%
maximum increase of cellular ROS (HepG2 cells [2]): ~ 2 fold
increase of the level of Hcys in blood ([3]; 75 min time point): ~ 2 fold
effect on mean arterial pressure (MAP) ([3]; indicator for in vivo CSE inhibition): does not affect
level of cystathionine (CTH) (HepG2 cells [4]): dose-dependently inhibits; also recorded: largely reduced
